Source: patent US10799478B2, “Treatment of androgen deprivation therapy associated symptoms” (priority 2014, dated 2020)

What was measured:
Orx rats = experiment: Orchidectomized Rat Assay; format: in vivo; settings: for SV Weight, % Sham: once daily 2 months
beagle dogs = experiment: Four Week Oral Toxicity Study in Dogs; format: in vivo, dog
Experimental: […] One additional group of three animals/sex serves as the control and receives the vehicle, 80% PEG 3350/20% Vitamin E TPGS (v/v) via oral capsule. The test article or vehicle is administered to all groups via oral capsule, twice a day for 28 consecutive days, at a dose volume of 1.5 mL/kg/dose.
Observations for mortality, morbidity, injury, and the availability of food and water are conducted twice daily for all animals. Detailed clinical observations are conducted weekly. Body weights are measured and recorded the day after receipt, prior to randomization, and weekly during the study. Food consumption is measured and recorded weekly. Ophthalmoscopic examinations are conducted pretest and prior to the terminal necropsy. Physical examinations are conducted pretest. Neurological examinations are conducted during Weeks 1 and 4. ECG examinations are conducted twice prior to the initiation of dosing and prior to and approximately 2 hours (±15 minutes) after the morning test article administration on Days 3 and 26. […] The toxicokinetic parameters are determined for the test article from concentration-time data in the test species. At study termination, necropsy examinations are performed, organ weights are recorded, and testes, epididymis, and prostates are microscopically examined.

[1] = Allometric prediction of human clearance, bioavailability and dose

Q: With `CC(C)OC(=O)N[C@H]1Cc2c(n(Cc3ccccn3)c3ccc(C#N)cc23)C1` (single isomer, unassigned) [Example 1] as the compound, how does the “LV-TA (cm2) ± SD” value (Orx rats; 1 mg/Kg/d) read?
A: 0.3378 ± 7.08E−03 cm2

Q: And the “LV-TBMC (mg) ± SD” value (Orx rats; 1 mg/Kg/d)?
A: 1.54 ± 0.0256 mg

Q: And the “LV-TBMD (mg/cm3) ± SD” value (Orx rats; 1 mg/Kg/d)?
A: 507.4 ± 6.931 mg/cm3

Q: And the “SV Weight, % Sham” value (Orx rats; 1 mg/Kg/d po)?
A: 5.6 % Sham

Q: What about the “LV-TA (cm2) ± SD” value (Orx rats; 3 mg/Kg/d) of the same compound?
A: 0.362 ± 0.0138 ^ cm2

Q: And the “LV-TBMC (mg) ± SD” value (Orx rats; 3 mg/Kg/d)?
A: 1.79 ± 0.095 mg

Q: What about the “LV-TBMD (mg/cm3) ± SD” value (Orx rats; 3 mg/Kg/d) of the same compound?
A: 549 ± 15.965 mg/cm3

Q: What about the “SV Weight, % Sham” value (Orx rats; 3 mg/Kg/d po) of the same compound?
A: 5.5 % Sham

Q: What about the “LV-TA (cm2) ± SD” value (Orx rats; 10 mg/Kg/d) of the same compound?
A: 0.3521 ± 0.0125 ^ cm2

Q: What about the “LV-TBMC (mg) ± SD” value (Orx rats; 10 mg/Kg/d) of the same compound?
A: 1.7757 ± 0.0607 mg

Q: What about the “LV-TBMD (mg/cm3) ± SD” value (Orx rats; 10 mg/Kg/d) of the same compound?
A: 562.843 ± 16.104 mg/cm3

Q: And the “SV Weight, % Sham” value (Orx rats; 10 mg/Kg/d po)?
A: 6.0 % Sham

Q: And the “LV-TA (cm2) ± SD” value (Orx rats; 20 mg/Kg/d)?
A: 0.3563 ± 0.0102 ^ cm2

Q: And the “LV-TBMD (mg/cm3) ± SD” value (Orx rats; 20 mg/Kg/d)?
A: 529.357 ± 10.052 mg/cm3

Q: What about the “SV Weight, % Sham” value (Orx rats; 20 mg/Kg/d po) of the same compound?
A: 6.1 % Sham

Q: What about the “increase of exposure with dose” value (beagle dogs; dogs given 6 and 60 mg/kg/day, plateau at 60 mg/kg/day) of the same compound?
A: less than dose proportional

Q: What about the “gender effect on exposure” value (beagle dogs; male vs female dogs) of the same compound?
A: no gender effect

Q: And the predicted human bioavailability [1]?
A: 49%

Q: And the “allometrically predicted human clearance” value ([1]; 90% CI 24 to 46)?
A: 33 Uh
